Columns and labels:
[1] = tested on: antibodies in sera from SARS patients (sera 1a, 1b, 2, 6, 37, 62, London, SARS-yellow, SARS-green); assay type: binding, human; set-up: Binding of serum 6 to linear peptides of protein X1 of SARS-CoV Urbani / Binding of serum 37 to linear peptides of protein X1 of SARS-CoV Urbani / Binding of serum 6 to looped/cyclic peptide (PEPSCAN-ELISA) / Binding of serum 37 to looped/cyclic peptide (PEPSCAN-ELISA) / Binding of serum 37 to looped/cyclic peptides of protein X1 of SARS-CoV Urbani / Binding of serum 6 to linear peptides of protein X2 / Binding of serum 37 to linear peptides of protein X2 / Binding of serum 37 to looped/cyclic peptides of protein X2 of SARS-CoV Urbani / Binding of serum 6 to linear peptides of protein M of SARS-CoV Urbani / Binding of serum 37 to linear peptides of protein M of SARS-CoV Urbani / Binding of serum 6 to looped/cyclic peptides of protein M of SARS-CoV Urbani / Binding of serum 37 to looped/cyclic peptides of protein M of SARS-CoV Urbani / Binding of serum 6 to linear peptides of protein X3 of SARS-CoV Urbani / Binding of serum 37 to linear peptides of protein X3 of SARS-CoV Urbani / Binding of serum 37 to looped/cyclic peptides of protein X3 of SARS-CoV Urbani / Binding of serum 6 to linear peptides of protein X4 of SARS-CoV Urbani / Binding of serum 37 to linear peptides of protein X4 of SARS-CoV Urbani / Binding of serum 37 to looped/cyclic peptides of protein X4 of SARS-CoV Urbani / Binding of serum 6 to linear peptides of protein X5 of SARS-CoV Urbani / Binding of serum 37 to linear peptides of protein X5 of SARS-CoV Urbani / Binding of serum 37 to looped/cyclic peptides of protein X5 of SARS-CoV Urbani / Binding of serum 6 to linear peptides of protein N of SARS-CoV Urbani / Binding of serum 37 to linear peptides of protein N of SARS-CoV Urbani / Binding of serum 6 to linear peptide (PEPSCAN-ELISA) / Binding of serum 1a to looped/cyclic peptides of protein N of SARS-CoV Urbani / Binding of serum 1b to looped/cyclic peptides of protein N of SARS-CoV Urbani / Binding of serum 2 to looped/cyclic peptides of protein N of SARS-CoV Urbani / Binding of serum 6 to looped/cyclic peptides of protein N of SARS-CoV Urbani / Binding of serum 37 to looped/cyclic peptides of protein N of SARS-CoV Urbani / Binding of serum 62 to looped/cyclic peptides of protein N of SARS-CoV Urbani / Binding of serum London to looped/cyclic peptides of protein N of SARS-CoV Urbani / Binding of serum SARS-green to looped/cyclic peptides of protein N of SARS-CoV Urbani: unit not given here
[2] = tested on: control sera (pooled serum of ten healthy LUMC hospital workers; commercial negative donor pooled serum from the Dutch bloodbank); assay type: binding, human; set-up: Binding of Control serum LUMC to linear peptides / Binding of Control serum Blood-bank to linear peptides / Binding of Control serum LUMC to looped peptides / Binding of Control Serum Blood-Bank to Looped peptides / Binding of Control serum LUMC to linear peptides of the protein M of SARS-CoV Urbani / Binding of Control serum Blood-bank to linear peptides of the protein M of SARS-CoV Urbani / Binding of Control serum LUMC to looped peptides of the protein M of SARS-CoV Urbani / Binding of Control Serum Blood-Bank to Looped peptides of the protein M of SARS-CoV Urbani: unit not given here
[3] = tested on: rabbit serum obtained by immunizing a rabbit with the SARS-CoV strain Frankfurt 1; assay type: binding; set-up: Binding of a rabbit serum to linear peptides / Binding of a rabbit serum to looped peptides / Rabbit serum linear peptides / Rabbit serum looped peptides / Binding of a rabbit serum to linear peptides of protein N of SARS-CoV Urbani (Rabbit serum linear peptides) / Binding of a rabbit serum to looped/cyclic peptides of protein N of SARS-CoV Urbani (Rabbit serum looped peptides): unit not given here
[4] = tested on: recombinant human anti-SARS-CoV antibody 03-018; assay type: binding; set-up: Binding of antibody 03-018 to linear peptides of the N protein of SARS-CoV Urbani / Binding of antibody 03-018 to looped/cyclic peptides of the N protein of SARS-CoV Urbani: unit not given here

Sequence	Binding of serum 1a to looped/cyclic peptides of protein N of SARS-CoV Urbani [1]	Binding of serum 1b to looped/cyclic peptides of protein N of SARS-CoV Urbani [1]	Binding of serum 2 to looped/cyclic peptides of protein N of SARS-CoV Urbani [1]	Binding of serum 6 to looped/cyclic peptides of protein N of SARS-CoV Urbani [1]	Binding of serum 37 to looped/cyclic peptides of protein N of SARS-CoV Urbani [1]	Binding of serum 62 to looped/cyclic peptides of protein N of SARS-CoV Urbani [1]	Binding of serum London to looped/cyclic peptides of protein N of SARS-CoV Urbani [1]	Binding of serum SARS-green to looped/cyclic peptides of protein N of SARS-CoV Urbani [1]	Binding of serum SARS-yellow to looped/cyclic peptides of protein N of SARS-CoV Urbani [1]	Binding of a rabbit serum to linear peptides of protein N of SARS-CoV Urbani (Rabbit serum linear peptides) [3]	Binding of a rabbit serum to looped/cyclic peptides of protein N of SARS-CoV Urbani (Rabbit serum looped peptides) [3]	Binding of antibody 03-018 to linear peptides of the N protein of SARS-CoV Urbani [4]	Binding of antibody 03-018 to looped/cyclic peptides of the N protein of SARS-CoV Urbani [4]	Binding of serum 1a to linear peptides of protein N of SARS-CoV Urbani [1]	Binding of serum 1b to linear peptides of protein N of SARS-CoV Urbani [1]	Binding of serum 2 to linear peptides of protein N of SARS-CoV Urbani [1]	Binding of serum 6 to linear peptides of protein N of SARS-CoV Urbani [1]	Binding of serum 37 to linear peptides of protein N of SARS-CoV Urbani [1]	Binding of serum 62 to linear peptides of protein N of SARS-CoV Urbani [1]	Binding of serum London to linear peptides of protein N of SARS-CoV Urbani [1]	other results
QGQTVTKKSAAEASK	0.2	0.1	0.2	0.1	0.4	0.2	0.3	0.1	0.2	0.2	0.2	0.1	0.2	–	–	–	–	–	–	–	Recognition of the peptide by sera of SARS-CoV infected individuals, and form (linear, looped/cyclic) in which it is recognized [1]: recognized in linear form; Binding of Control Serum Blood-Bank to Looped peptides [2]: 0.4; Binding of Control serum Blood-bank to linear peptides [2]: 1.1; Binding of Control serum LUMC to linear peptides [2]: 1.0; Binding of Control serum LUMC to looped peptides [2]: 0.4
AQFAPSASAFFGMSR	0.3	0.2	0.6	0.5	0.8	0.6	2.1	0.2	0.4	0.1	0.7	0.1	0.3	0.2	0.1	0.1	0.1	0.5	0.4	0.4	Binding of serum SARS-green to linear peptides of protein N of SARS-CoV Urbani [1]: 0.1; Binding of serum SARS-yellow to linear peptides of protein N of SARS-CoV Urbani [1]: 0.6; Control Serum Blood-Bank Looped peptides [2]: 0.8; Control serum Blood-bank linear peptides [2]: 0.7; Control serum LUMC linear peptides [2]: 0.5; Control serum LUMC looped peptides [2]: 0.6
KDKKKKTDEAQPLPQ	0.2	0.1	0.2	0.2	0.4	0.3	0.4	0.1	0.1	0.1	0.0	0.1	0.2	0.2	0.1	0.2	0.2	0.7	0.6	0.6	Binding of serum SARS-green to linear peptides of protein N of SARS-CoV Urbani [1]: 0.5; Binding of serum SARS-yellow to linear peptides of protein N of SARS-CoV Urbani [1]: 0.5; Control Serum Blood-Bank Looped peptides [2]: 0.5; Control serum Blood-bank linear peptides [2]: 0.6; Control serum LUMC linear peptides [2]: 0.6; Control serum LUMC looped peptides [2]: 0.4

— US20070128217A1 (priority 2003, published 2007)
